Data from patent publication US9809861B2, “Method of evaluating inhibitory effect on damp-dry malodor” (Kao Corporation, priority 2012, dated 2017).

Tests used:
Δ9desaturase gene = assay: Change in expression amount of Δ9desaturase gene in the presence of test substance (real time PCR); type: cell-based, Moraxella sp. KMC4-1; settings: for Change in the expression amount of Δ9desaturase gene: Substance (1) 10 ppm, (2)(3)(5)(6) 100 ppm, (4) 500 ppm
Description: (§1) The substances (1) to (7) described below each were added to 4 mL SCD liquid medium (manufactured by NIHON PHARMACEUTICAL CO., LTD). As a control, a medium system not added with any test substance was also prepared. To these medium, one platinum loop of precultured Moraxella sp. KMC4-1 was inoculated and cultured for 24 hours at 35 C while shaking (160 rpm).
(§2) To the cell liquid cultured for 24 hours, 10 mg of 16-methyloctadecanoic acid was added as a sebaceous dirt component. After culturing again for 6 hours at 35° C., the cells were collected. As a control, a system not added with a sebaceous dirt component was also cultured and cells were collected therefrom.
(§3) An RNA sample was prepared from the collected cells in the same manner as in the test example 1.
By mixing 2 μL solution of the prepared template diluted ×20 with distilled sterile water, 12.5 μL of TaKaRa SYBR Premix EX Taq (trade name, manufactured by Takara Bio Inc.), 0.5 μL of the primer (des_F1, […]) containing the oligonucleotide having the base sequence set forth in SEQ ID NO: 13, 0.5 μL of the primer (des_R1, […]) containing the oligonucleotide having the base sequence set forth in SEQ ID NO: 14 and 9.5 μL of distilled sterile water, 25 μL reaction solution for real time PCR was prepared.
(§4) Reaction solutions for real time PCR were prepared in the same manner as above, except that, instead of the primer set including the primer containing the oligonucleotide having the base sequence set forth in SEQ ID NO: 13 and the primer containing the oligonucleotide having the base sequence set forth in SEQ ID NO: 14, the primer set described in Tables 11 to 13 was used.
(§5) The reaction solutions for real time PCR each were subjected to a gene amplification by using an automatic gene amplification thermal cycler DICE Real time system II (manufactured by Takara Bio Inc.), and then the expression amount of each of the fatty acid desaturase gene (the Δ9desaturase gene) and the β oxidation-relating enzyme genes (the fadB gene and the fadD gene) was measured. PCR reaction conditions were 40 cycles of (i) a thermal denaturation reaction at 95° C. for 20 seconds, and (ii) an annealing reaction and an elongation reaction at 60° C. for 30 seconds.
(§6) By having the gene expression of 16S rRNA as an internal standard, and having the gene expression amount when adding no sebaceous dirt component and no test substance as a reference value, change in expression amount of each gene was calculated relative to the reference value. A sample, in which the expression amount of the gene was ½ times or less the reference value, was rated as “A”; a sample, in which the expression amount of the gene was more than ½ times and ⅔ times or less the reference value, was rated as “B”; and a sample, in which the expression amount of the gene was more than ⅔ times the reference value, was rated as “C”.

fadD gene = assay: Change in expression amount of fadD gene in the presence of test substance (real time PCR); type: cell-based, Moraxella sp. KMC4-1; settings: for Change in the expression amount of fadD gene: Substance (1) 10 ppm, (2)(3)(5)(6) 100 ppm, (4) 500 ppm; for expression amount of the fadD gene by the microorganisms: summary of Table 13
Description: as §1, §2, §3, §4, §5, §6

Moraxella sp. KMC4-1 = assay: Bactericidal test; type: cell-based; settings: 10^6 CFU/mL, 2 hours, 25° C.; Substance (1) 10 ppm, (2)(3)(5)(6) 100 ppm, (4) 500 ppm
Description: To 5 mL of a test solution in which the substances (1) to (7) each were added so as to be the final concentration described in Table 15, the precultured Moraxella sp. KMC4-1 was inoculated so as to be the concentration of 10^6 CFU/mL and cultured for 2 hours at 25° C. while shaking (160 rpm). After that, it was subjected to serial dilution using LP dilution solution (NIHON PHARMACEUTICAL CO., LTD). Then, by using SCD-LP agar medium (NIHON PHARMACEUTICAL CO., LTD), the number of bacteria remained alive was determined.
As for the growth-inhibitory and the bactericidal effect, the evaluation was made as follows: compared to the control, when there was the bacteria number decrease of log 3 or more, it was rated as “A”; when there was the bacteria number decrease of log 1 or more but less than log 3, it was rated as “B”; and when there was the bacteria number decrease of less than log 1, it was rated as “C”.

[1] = primers SEQ ID NO: 13 / 14, 16-methyloctadecanoic acid added, relative to reference without sebaceous dirt component and test substance

| Structure (SMILES) | Change in the expression amount of Δ9desaturase gene (Δ9desaturase gene; [1]) | Change in the expression amount of Δ9desaturase gene (Δ9desaturase gene; primers SEQ ID NO: 15 / 16) | Change in the expression amount of Δ9desaturase gene (Δ9desaturase gene; primers SEQ ID NO: 17 / 18) | Change in the expression amount of Δ9desaturase gene (Δ9desaturase gene; primers SEQ ID NO: 19 / 20) | Change in the expression amount of Δ9desaturase gene (Δ9desaturase gene; primers SEQ ID NO: 21 / 22) | Change in the expression amount of Δ9desaturase gene (Δ9desaturase gene; primers SEQ ID NO: 23 / 24) | expression amount of the Δ9desaturase gene by the microorganisms (Δ9desaturase gene; summary of Table 11) | Change in the expression amount of fadD gene (fadD gene; primers SEQ ID NO: 35 / 36) | Change in the expression amount of fadD gene (fadD gene; primers SEQ ID NO: 41 / 42) | expression amount of the fadD gene by the microorganisms (fadD gene) | Bactericidal effect (Moraxella sp. KMC4-1) |
| --- | --- | --- | --- | --- | --- | --- | --- | --- | --- | --- | --- |
| CCCCCCCCCC=O [Substance (1)] | B (the expression amount of the gene was more than ½ times and ⅔ times or less the reference value) | B (the expression amount of the gene was more than ½ times and ⅔ times or less the reference value) | A (the expression amount of the gene was ½ times or less the reference value) | A (the expression amount of the gene was ½ times or less the reference value) | B (the expression amount of the gene was more than ½ times and ⅔ times or less the reference value) | B (the expression amount of the gene was more than ½ times and ⅔ times or less the reference value) | decreased | A (the expression amount of the gene was ½ times or less the reference value) | A (the expression amount of the gene was ½ times or less the reference value) | decreased | C (the bacteria number decrease of less than log 1) |
| CC(=O)OC(C)(C)Cc1ccccc1 [Substance (2)] | C (the expression amount of the gene was more than ⅔ times the reference value) | B (the expression amount of the gene was more than ½ times and ⅔ times or less the reference value) | B (the expression amount of the gene was more than ½ times and ⅔ times or less the reference value) | B (the expression amount of the gene was more than ½ times and ⅔ times or less the reference value) | C (the expression amount of the gene was more than ⅔ times the reference value) | C (the expression amount of the gene was more than ⅔ times the reference value) | – | A (the expression amount of the gene was ½ times or less the reference value) | A (the expression amount of the gene was ½ times or less the reference value) | decreased | C (the bacteria number decrease of less than log 1) |
| CNc1ccccc1C(=O)OC [Substance (3)] | C (the expression amount of the gene was more than ⅔ times the reference value) | C (the expression amount of the gene was more than ⅔ times the reference value) | C (the expression amount of the gene was more than ⅔ times the reference value) | C (the expression amount of the gene was more than ⅔ times the reference value) | C (the expression amount of the gene was more than ⅔ times the reference value) | C (the expression amount of the gene was more than ⅔ times the reference value) | – | A (the expression amount of the gene was ½ times or less the reference value) | A (the expression amount of the gene was ½ times or less the reference value) | decreased | C (the bacteria number decrease of less than log 1) |
| CCCCCCCC/C=C\CCCCCCCC(=O)O [Substance (4)] | C (the expression amount of the gene was more than ⅔ times the reference value) | C (the expression amount of the gene was more than ⅔ times the reference value) | C (the expression amount of the gene was more than ⅔ times the reference value) | C (the expression amount of the gene was more than ⅔ times the reference value) | C (the expression amount of the gene was more than ⅔ times the reference value) | C (the expression amount of the gene was more than ⅔ times the reference value) | – | C (the expression amount of the gene was more than ⅔ times the reference value) | C (the expression amount of the gene was more than ⅔ times the reference value) | – | C (the bacteria number decrease of less than log 1) |
| O=C[C@H](O)[C@@H](O)[C@H](O)[C@H](O)CO [Substance (5)] | C (the expression amount of the gene was more than ⅔ times the reference value) | C (the expression amount of the gene was more than ⅔ times the reference value) | C (the expression amount of the gene was more than ⅔ times the reference value) | C (the expression amount of the gene was more than ⅔ times the reference value) | C (the expression amount of the gene was more than ⅔ times the reference value) | C (the expression amount of the gene was more than ⅔ times the reference value) | – | C (the expression amount of the gene was more than ⅔ times the reference value) | C (the expression amount of the gene was more than ⅔ times the reference value) | – | C (the bacteria number decrease of less than log 1) |
